# EPA's ToxValDB 9.5
# Key:
# Canidae = details: Dog Other
# [1] = subchronic, duration: 90 days, oral, diet, M/F, Sprague-Dawley, no effects
# [2] = subchronic, duration: 90 days, oral, diet, M/F, no effects
# [3] = subchronic, duration: 90 days, clinical chemistry
# [4] = reproduction developmental, histopathology: nonneoplastic
# [5] = chronic, duration: 2 years, M/F, clinical chemistry
# [6] = subchronic, duration: 90 days, oral, diet, Wistar, no effects
smiles,measurement,setting,value
O=C([O-])c1cc(C(=O)[O-])c2c(n1)C(=O)C(=O)c1cc(C(=O)O)[nH]c1-2.[Na+].[Na+],NOAEL,"Rattus norvegicus; subchronic, duration: 90 days, oral, gavage, M/F, Crj:CD",100 mg/kg-day
CC(C)(CO)C1OCC2(CO1)COC(C(C)(C)CO)OC2 (configuration not stated),NOAEL,"Rattus norvegicus; subchronic, duration: 90 days, oral, M/F, Sprague-Dawley, no effects",2000 mg/kg-day
CC(C)CC(=O)N1CCC[C@H](COc2cccc3c2C(N)=NS(=O)(=O)N3)C1,NOAEL,"Rattus norvegicus; reproduction developmental, duration: 15 days, oral, gavage, no effects",1000 mg/kg-day
same,NOAEL,"Rattus norvegicus; subchronic, duration: 13 weeks, oral, diet, M/F, no effects",100 mg/kg-day
CCCNC(=O)C(C)(C)COc1cccc2c1C(N)=NS(=O)(=O)N2,NOAEL,Rattus norvegicus; [1],20 mg/kg-day
CC(=O)c1cccc2ccccc12 [1'-Acetonaphthone],NOAEL,Rattus norvegicus; [2],33 mg/kg-day
"CC(O)CO (configuration not stated) [1,2-Propylene glycol]",NOEL,"Rattus norvegicus; chronic, duration: 2 years",2500 mg/kg-day
"OC1CSC(O)CS1 (configuration not stated) [1,4-Dithiane-2,5-diol]",NOAEL,Rattus norvegicus; [1],3.14 mg/kg-day
"SCCCCCCCCS [1,8-Octanedithiol]",NOAEL,Rattus norvegicus; [1],0.705 mg/kg-day
CC(=O)CSCc1ccco1 [1-(2-Furfurylthio)propanone],NOAEL,Rattus norvegicus; [2],3.76 mg/kg-day
C=C(C)c1ccc(C)cc1 [1-Methyl-4-(prop-1-en-2-yl)benzene],NOAEL,"Rattus norvegicus; subchronic, duration: 90 days",0.625 mg/kg-day
"Clc1cc2c(cc1Cl)Oc1cc(Cl)c(Cl)cc1O2 [2,3,7,8-Tetrachlorodibenzo-p-dioxin]",LOAEL,"Rattus norvegicus; reproduction developmental, injection, subcutaneous, Wistar, behavior",2.5e-05 mg/kg-day
"CC(S)C(C)S (configuration not stated) [2,3-Butanedithiol]",NOAEL,Rattus norvegicus; [1],0.703 mg/kg-day
"Clc1ccc(-c2ccc(Cl)cc2Cl)cc1 [2,4,4'-Trichlorobiphenyl]",NOAEL,Rattus norvegicus; [3],0.4 mg/kg-day
"CCC(C)(C)c1ccc(O)c(C(C)(C)CC)c1 [2,4-Di-tert-pentylphenol]",NOAEL,"Rattus norvegicus; subchronic, duration: 90 days, oral, M/F, Wistar, histopathology: nonneoplastic",5 mg/kg-day
"CC(C)=CCCC(C)C=O (configuration not stated) [2,6-Dimethylhept-5-enal]",NOAEL,"Rattus norvegicus; subchronic, duration: 3 months, oral, diet, M/F, organ weight",37 mg/kg-day
"CC(C)=CC(=O)SC(C)C [2-Butenethioic acid, 3-methyl-, S-(1-methylethyl) ester]",NOAEL,"Rattus norvegicus; subchronic, duration: 90 days, oral",6.63 mg/kg-day
"CCC1SSC(CC)S1 (configuration not stated) [3,5-Diethyl-1,2,4-trithiolane]",NOAEL,Rattus norvegicus; [1],0.2 mg/kg-day
"CCOC(=O)c1ccoc1-c1ccccc1 [3-Furancarboxylic acid, 2-phenyl-, ethyl ester]",NOEL,"Rattus norvegicus; subchronic, duration: 90 days, oral, diet",13 mg/kg-day
"CC1=C(O)C(=O)C(C)O1 (configuration not stated) [4-Hydroxy-2,5-dimethyl-3(2H)furanone]",NOAEL,"Rattus norvegicus; chronic, duration: 2 years, M/F, body weight",200 mg/kg-day
same,NOAEL,"Rattus norvegicus; chronic, duration: 2 years, oral, diet, M/F, Sprague-Dawley, body weight",200 mg/kg-day
Cc1ccc(C(=O)c2ccccc2)cc1 [4-Methylbenzophenone],LOAEL,Rattus norvegicus; [4],6 mg/kg-day
CC1CCC2(O1)C(C)(C)CCCC2(C)O (configuration not stated) [6-Hydroxydihydrotheaspirane],NOAEL,"Rattus norvegicus; subchronic, duration: 90 days, oral, diet, M/F, Crj:CD, food efficiency",52 mg/kg-day
Cc1ccc2ncccc2c1 [6-Methylquinoline],NOAEL,Rattus norvegicus; [2],2.2 mg/kg-day
"CCCCC/C=C/C=C/C(=O)NCC(C)C [(E,E)-N-(2-Methylpropyl)-2,4-decadienamide]",NOAEL,"Rattus norvegicus; subchronic, duration: 90 days, oral, diet, M/F, Sprague-Dawley, histopathology: nonneoplastic",10 mg/kg-day
CC(C)=O [Acetone],NOAEL,"Rattus norvegicus; subchronic, duration: 90 days, oral, drinking water",900 mg/kg-day
O=S(=O)([O-])c1ccc2c(N=Nc3ccc(S(=O)(=O)[O-])c4ccccc34)c(O)c(S(=O)(=O)[O-])cc2c1.[Na+].[Na+].[Na+] [Amaranth],NOAEL,"Rattus norvegicus; developmental, duration: 19 days, oral, gavage, F, Osborne-Mendel, development",15 mg/kg-day
O=C(c1ccccc1)c1ccccc1 [Benzophenone],LOAEL,Rattus norvegicus; [4],6 mg/kg-day
OCc1ccccc1 [Benzyl alcohol],NOAEL,"Rattus norvegicus; chronic, duration: 103 weeks, oral, gavage, M/F, no effects",400 mg/kg-day
CCCCOC(=O)c1ccccc1C(=O)OCc1ccccc1 [Benzyl butyl phthalate],NOAEL,"Rattus norvegicus; developmental, oral, diet, M/F, development",50 mg/kg-day
Cc1occc1SSSSc1ccoc1C [Bis(2-methyl-3-furyl) tetrasulfide],NOAEL,"Rattus norvegicus; subchronic, duration: 90 days, oral, diet, M/F, Wistar, no effects",0.56 mg/kg-day
N#Cc1cc(Br)c(O)c(Br)c1 [Bromoxynil],NOAEL,"Rattus norvegicus; developmental, development",4 mg/kg-day
same,NOAEL,"Canidae; chronic, duration: 1 years, oral, organ weight",0.3 mg/kg-day
O=C([O-])c1[nH]n(-c2ccc(S(=O)(=O)[O-])cc2)c(=O)c1N=Nc1ccc(S(=O)(=O)[O-])cc1.[Na+].[Na+].[Na+] [C.I. Acid Yellow 23],NOAEL,"Rattus norvegicus; chronic, M, body weight",984 mg/kg-day
CCCCCCCCCCCCCCCCCC(=O)OC(C)C(=O)OC(C)C(=O)[O-].CCCCCCCCCCCCCCCCCC(=O)OC(C)C(=O)OC(C)C(=O)[O-].[Ca+2] (configuration not stated) [Calcium stearoyl-2-lactylate],NOAEL,"Rattus norvegicus; chronic, duration: 1 years, M/F, Wistar, no effects",2200 mg/kg-day
[Cr+3] [Chromium (III)],NOAEL,"Rattus norvegicus; chronic, duration: 2 years, oral, diet, M/F, Fischer 344, histopathology: neoplastic",286 mg/kg-day
O=c1ccc2ccccc2o1 [Coumarin],NOAEL,"Canidae; chronic, duration: 2 years, histopathology: nonneoplastic",10 mg/kg-day
COc1cc(/C=C/C(=O)CC(=O)/C=C/c2ccc(O)c(OC)c2)ccc1O [Curcumin],NOAEL,"Rattus norvegicus; reproduction developmental, duration: 24 weeks, oral, diet, M/F, body weight",≥ 250 mg/kg-day
ClC1=C(Cl)[C@]2(Cl)[C@@H]3[C@@H]4C[C@@H]([C@H]5O[C@@H]45)[C@@H]3[C@@]1(Cl)C2(Cl)Cl [Dieldrin],LD50,"Rattus norvegicus; acute, oral, mortality",25 mg/kg-day
O=C(NC(=O)c1c(F)cccc1F)Nc1ccc(Cl)cc1 [Diflubenzuron],LD50,"Rattus norvegicus; acute, dermal, mortality",> 2000 mg/kg
same,LC50,"Rattus norvegicus; acute, duration: 4 hours, inhalation, mortality",> 2.5 µg/mL
same,LD50,"Rattus norvegicus; acute, oral, mortality",> 4640 mg/kg
same,NOAEL,"Canidae; chronic, duration: 1 years, oral, hematological",10 mg/kg-day
COc1cc(COC(=O)CCCCCCC(C)C)ccc1O [Dihydrocapsiate],NOAEL,"Rattus norvegicus; chronic, duration: 26 weeks, oral, gavage, M/F, Sprague-Dawley, histopathology: nonneoplastic",300 mg/kg-day
same,NOAEL,"Rattus norvegicus; subchronic, duration: 13 weeks, oral, gavage, M/F, Sprague-Dawley, clinical chemistry",300 mg/kg-day
same,NOAEL,"Rattus norvegicus; subchronic, duration: 13 weeks, oral, gavage, M/F, Sprague-Dawley, organ weight",300 mg/kg-day
CC(C)CCCCCCCOC(=O)c1ccccc1C(=O)OCCCCCCCC(C)C [Diisodecyl phthalate],NOAEL,"Canidae; subchronic, duration: 13 weeks, histopathology: nonneoplastic",15 mg/kg-day
"CC(C)CCCCCCOC(=O)C1CCCCC1C(=O)OCCCCCCC(C)C (configuration not stated) [Diisononyl cyclohexane-1,2-dicarboxylate]",NOAEL,"Rattus norvegicus; subchronic, duration: 13 weeks, M/F, Wistar, clinical chemistry",100 mg/kg-day
c1ccc(Oc2ccccc2)cc1 [Diphenyl oxide],NOAEL,"Rattus norvegicus; subchronic, duration: 90 days, oral, body weight",15 mg/kg-day
CCOC(=O)C1OC1(C)c1ccc(C)cc1 (configuration not stated) [Ethyl 3-methyl-3-(4-methylphenyl)oxirane-2-carboxylate],NOAEL,Rattus norvegicus; [5],35 mg/kg-day
CCOC(=O)C1OC1(C)c1ccccc1 (configuration not stated) [Ethyl methylphenylglycidate],NOAEL,Rattus norvegicus; [5],35 mg/kg-day
O=S(=O)([O-])c1ccc(N=Nc2c(O)ccc3cc(S(=O)(=O)[O-])ccc23)cc1.[Na+].[Na+] [FD&C Yellow 6],NOAEL,"Rattus norvegicus; reproduction developmental, duration: 28 days, oral, diet, body weight",375 mg/kg-day
same,NOAEL,"Rattus norvegicus; subchronic, duration: 90 days, oral, diet, M/F, histopathology: nonneoplastic",500 mg/kg-day
same,NOAEL,"Canidae; chronic, duration: 7 years, oral, F, no effects",500 mg/kg-day
"Cc1cc(SSc2cc(C)oc2C)c(C)o1 [Furan, 3,3'-dithiobis[2,5-dimethyl-]",NOAEL,"Rattus norvegicus; subchronic, duration: 90 days, no effects",0.29 mg/kg-day
Cc1occc1SSCc1ccco1 [Furfuryl 2-methyl-3-furyl disulfide],NOAEL,Rattus norvegicus; [6],0.45 mg/kg-day
CCCOC(=O)c1cc(O)c(O)c(O)c1 [Gallic acid n-propyl ester],NOAEL,"Rattus norvegicus; subchronic, duration: 13 weeks, oral, diet, M/F, clinical chemistry",1910 mg/kg-day
same,NOAEL,"Rattus norvegicus; subchronic, duration: 90 days, oral, diet, M/F, hematological",135 mg/kg-day
CC/C=C/CCOC(=O)C(CC)CC [Hex-3-enyl 2-ethylbutanoate],NOAEL,"Rattus norvegicus; reproduction developmental, duration: 10 days, oral, gavage, F, Sprague-Dawley, no effects",200 mg/kg-day
same,NOAEL,"Rattus norvegicus; reproduction developmental, duration: 10 days, oral, gavage, F, no effects",200 mg/kg-day
c1ccc2cnccc2c1 [Isoquinoline],NOAEL,"Rattus norvegicus; subchronic, duration: 90 days, oral, gavage, M/F, Sprague-Dawley, no effects",3 mg/kg-day
CC(=O)N[C@H]1[C@H](O[C@H]2[C@@H](O)[C@@H](CO)O[C@@H](O[C@@H]([C@H](O)[C@@H](O)C=O)[C@H](O)CO)[C@@H]2O)O[C@H](CO)[C@@H](O[C@@H]2O[C@H](CO)[C@H](O)[C@H](O)[C@H]2O)[C@@H]1O [Lacto-N-neotetraose],NOAEL,"Rattus norvegicus; subchronic, duration: 90 days, oral, gavage, M/F, Wistar, hematological",2500 mg/kg-day
"COc1cc(CCCS(=O)(=O)[O-])ccc1OC(Cc1cccc(OC)c1O)CS(=O)(=O)[O-].[Ca+2] (configuration not stated) [Lignosulfonic acid, calcium salt]",NOAEL,Rattus norvegicus; [6],2000 mg/kg-day
Cc1occc(=O)c1O [Maltol],NOEL,"Rattus norvegicus; chronic, duration: 2 years, oral, diet",100 mg/kg-day
COC(=O)CCSCc1ccco1 [Methyl 3-{[(furan-2-yl)methyl]sulfanyl}propanoate],NOAEL,"Rattus norvegicus; subchronic, duration: 90 days, oral, diet, M/F, clinical chemistry",5.78 mg/kg-day
CC(C)(CO)[C@@H](O)C(=O)NCCC(=O)NCCSSCCNC(=O)CCNC(=O)[C@H](O)C(C)(C)CO [Pantethine],NOAEL,"Rattus norvegicus; chronic, duration: 54 weeks, M/F, clinical chemistry",36 mg/kg-day
"C/C=C/C=C/C(=O)[O-].[K+] [Potassium (E,E)-hexa-2,4-dienoate]",NOAEL,"Rattus norvegicus; reproduction developmental, oral, gavage, M/F, Crj:CD, body weight",300 mg/kg-day
"Cc1cc2nc3c(=O)[nH]c(=O)nc-3n(C[C@H](O)[C@H](O)[C@H](O)COP(=O)([O-])O)c2cc1C.[Na+] [Riboflavin 5'-(dihydrogen phosphate), sodium salt (1:1)]",NOAEL,"Rattus norvegicus; subchronic, duration: 90 days, M/F, Wistar, no effects",160 mg/kg-day
CC1S[C@H](C)N[C@H](C)S1 (some centres not stated) [Thialdine],NOAEL,"Rattus norvegicus; subchronic, duration: 90 days, oral, diet, M, histopathology: nonneoplastic",9.3 mg/kg-day
CN(C)C [Trimethylamine],NOAEL,"Rattus norvegicus; subchronic, duration: 90 days",90 mg/kg-day
O=P(c1ccccc1)(c1ccccc1)c1ccccc1 [Triphenylphosphine oxide],NOEL,Rattus norvegicus; [3],2 mg/kg-day
CCCCC(CC)COC(=O)c1ccc(C(=O)OCC(CC)CCCC)c(C(=O)OCC(CC)CCCC)c1 (configuration not stated) [Tris(2-ethylhexyl) trimellitate],NOAEL,"Rattus norvegicus; subchronic, duration: 90 days, oral, diet, M/F, Sprague-Dawley, organ weight",225 mg/kg-day
